{
  "source": "PubChem BioAssay (NCI)",
  "assay_in_all_cases": "NCI tumour cell line growth inhibition, 48 h",
  "key": {"[1]": {"tested_on": "IGROV1 ovarian"}, "[2]": {"tested_on": "NCI-H226 lung"}, "[3]": {"tested_on": "SNB-19 CNS"}, "[4]": {"tested_on": "SR leukemia"}, "[5]": {"tested_on": "CAKI-1 renal"}, "[6]": {"tested_on": "SF-268 CNS"}, "[7]": {"tested_on": "RPMI-8226 leukemia"}, "[8]": {"tested_on": "RXF 393 renal"}, "[9]": {"tested_on": "DU-145 prostate"}, "[10]": {"tested_on": "PC-3 prostate"}, "[11]": {"tested_on": "ACHN renal"}, "[12]": {"tested_on": "HS 578T breast"}, "[13]": {"tested_on": "UO-31 renal"}, "[14]": {"tested_on": "OVCAR-3 ovarian"}, "[15]": {"tested_on": "SF-295 CNS"}, "[16]": {"tested_on": "SK-MEL-5 melanoma"}, "[17]": {"tested_on": "MDA-MB-435"}, "[18]": {"tested_on": "NCI/ADR-RES ovarian"}, "[19]": {"tested_on": "SK-OV-3 ovarian"}, "[20]": {"tested_on": "EKVX NSCLC"}, "[21]": {"tested_on": "T-47D breast"}, "[22]": {"tested_on": "M14 melanoma"}, "[23]": {"tested_on": "OVCAR-4 ovarian"}, "[24]": {"tested_on": "SNB-75 CNS"}, "[25]": {"tested_on": "OVCAR-8 ovarian"}, "[26]": {"tested_on": "UACC-62 melanoma"}, "[27]": {"tested_on": "NCI-H460 lung"}, "[28]": {"tested_on": "SK-MEL-28 melanoma"}, "[29]": {"tested_on": "U251 CNS"}, "[30]": {"tested_on": "HCT-15 colon"}, "[31]": {"tested_on": "HOP-92 NSCLC"}, "[32]": {"tested_on": "SK-MEL-2 melanoma"}, "[33]": {"tested_on": "NCI-H23 lung"}, "[34]": {"tested_on": "OVCAR-5 ovarian"}, "[35]": {"tested_on": "KM12 colon"}, "[36]": {"tested_on": "UACC-257 melanoma"}, "[37]": {"tested_on": "SF-539 CNS"}, "[38]": {"tested_on": "HT29 colon"}, "[39]": {"tested_on": "MCF7 breast"}, "[40]": {"tested_on": "786-0 renal"}, "[41]": {"tested_on": "MDA-MB-231 breast"}, "[42]": {"tested_on": "COLO 205 colon"}, "[43]": {"tested_on": "SW-620 colon"}, "[44]": {"tested_on": "SN12C renal"}, "[45]": {"tested_on": "MOLT-4 leukemia"}, "[46]": {"tested_on": "HOP-62 NSCLC"}, "[47]": {"tested_on": "MALME-3M melanoma"}, "[48]": {"tested_on": "TK-10 renal"}, "[49]": {"tested_on": "HCT-116 colon"}, "[50]": {"tested_on": "NCI-H522 lung"}, "[51]": {"tested_on": "K-562 leukemia"}, "[52]": {"tested_on": "A549 NSCLC"}, "[53]": {"tested_on": "HL-60(TB) leukemia"}, "[54]": {"tested_on": "BT-549 breast"}},
  "note": "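Five concentrations, 48 hours, 96-well plates. The concentration for full growth arrest is given as TGI.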",
  "data": [
    {"smiles": "COc1cc(O)ccc1C(=S)SC", "values": [
      {"measurement": "TGI", "setting": "[1]", "value": "> 100", "unit": "µM"},
      {"measurement": "TGI", "setting": "[2]", "value": 76.9, "unit": "µM"},
      {"measurement": "TGI", "setting": "[3]", "value": "> 100", "unit": "µM"},
      {"measurement": "TGI", "setting": "[4]", "value": "> 100", "unit": "µM"},
      {"measurement": "TGI", "setting": "[5]", "value": "> 100", "unit": "µM"},
      {"measurement": "TGI", "setting": "[6]", "value": "> 100", "unit": "µM"},
      {"measurement": "TGI", "setting": "[7]", "value": 55.6, "unit": "µM"},
      {"measurement": "TGI", "setting": "[8]", "value": "> 100", "unit": "µM"},
      {"measurement": "TGI", "setting": "[9]", "value": "> 100", "unit": "µM"},
      {"measurement": "TGI", "setting": "[10]", "value": "> 100", "unit": "µM"},
      {"measurement": "TGI", "setting": "[11]", "value": "> 100", "unit": "µM"},
      {"measurement": "TGI", "setting": "[12]", "value": 98.5, "unit": "µM"},
      {"measurement": "TGI", "setting": "[13]", "value": "> 100", "unit": "µM"},
      {"measurement": "TGI", "setting": "[14]", "value": "> 100", "unit": "µM"},
      {"measurement": "TGI", "setting": "[15]", "value": "> 100", "unit": "µM"},
      {"measurement": "TGI", "setting": "[16]", "value": "> 100", "unit": "µM"},
      {"measurement": "TGI", "setting": "[17]", "value": "> 100", "unit": "µM"},
      {"measurement": "TGI", "setting": "[18]", "value": "> 100", "unit": "µM"},
      {"measurement": "TGI", "setting": "[19]", "value": "> 100", "unit": "µM"},
      {"measurement": "TGI", "setting": "[20]", "value": 46.3, "unit": "µM"},
      {"measurement": "TGI", "setting": "[21]", "value": "> 100", "unit": "µM"},
      {"measurement": "TGI", "setting": "[22]", "value": "> 100", "unit": "µM"},
      {"measurement": "TGI", "setting": "[23]", "value": "> 100", "unit": "µM"},
      {"measurement": "TGI", "setting": "[24]", "value": "> 100", "unit": "µM"},
      {"measurement": "TGI", "setting": "[25]", "value": "> 100", "unit": "µM"},
      {"measurement": "TGI", "setting": "[26]", "value": "> 100", "unit": "µM"},
      {"measurement": "TGI", "setting": "[27]", "value": "> 100", "unit": "µM"},
      {"measurement": "TGI", "setting": "[28]", "value": "> 100", "unit": "µM"},
      {"measurement": "TGI", "setting": "[29]", "value": "> 100", "unit": "µM"},
      {"measurement": "TGI", "setting": "[30]", "value": "> 100", "unit": "µM"},
      {"measurement": "TGI", "setting": "[31]", "value": "> 100", "unit": "µM"},
      {"measurement": "TGI", "setting": "[32]", "value": "> 100", "unit": "µM"},
      {"measurement": "TGI", "setting": "[33]", "value": "> 100", "unit": "µM"},
      {"measurement": "TGI", "setting": "[34]", "value": "> 100", "unit": "µM"},
      {"measurement": "TGI", "setting": "[35]", "value": "> 100", "unit": "µM"},
      {"measurement": "TGI", "setting": "[36]", "value": "> 100", "unit": "µM"},
      {"measurement": "TGI", "setting": "[37]", "value": "> 100", "unit": "µM"},
      {"measurement": "TGI", "setting": "[38]", "value": "> 100", "unit": "µM"},
      {"measurement": "TGI", "setting": "[39]", "value": "> 100", "unit": "µM"},
      {"measurement": "TGI", "setting": "[40]", "value": "> 100", "unit": "µM"},
      {"measurement": "TGI", "setting": "[41]", "value": 88.4, "unit": "µM"},
      {"measurement": "TGI", "setting": "[42]", "value": "> 100", "unit": "µM"},
      {"measurement": "TGI", "setting": "[43]", "value": "> 100", "unit": "µM"},
      {"measurement": "TGI", "setting": "[44]", "value": 9.56, "unit": "µM"},
      {"measurement": "TGI", "setting": "[45]", "value": 92.2, "unit": "µM"},
      {"measurement": "TGI", "setting": "[46]", "value": "> 100", "unit": "µM"},
      {"measurement": "TGI", "setting": "[47]", "value": "> 100", "unit": "µM"},
      {"measurement": "TGI", "setting": "[48]", "value": "> 100", "unit": "µM"},
      {"measurement": "TGI", "setting": "[49]", "value": "> 100", "unit": "µM"},
      {"measurement": "TGI", "setting": "[50]", "value": "> 100", "unit": "µM"},
      {"measurement": "TGI", "setting": "[51]", "value": "> 100", "unit": "µM"},
      {"measurement": "TGI", "setting": "[52]", "value": "> 100", "unit": "µM"},
      {"measurement": "TGI", "setting": "[53]", "value": "> 100", "unit": "µM"},
      {"measurement": "TGI", "setting": "[54]", "value": "> 100", "unit": "µM"}
    ]}
  ]
}
